From article PMC12203311, “Design, synthesis, in silico and in vitro evaluation of pyrrole–indole hybrids as dual tubulin and aromatase inhibitors with potent anticancer activities” (RSC Advances, 2025)

What was measured:
Experiment in all cases: NCI60 five-dose screen
U251 = assay type: cell-based; settings: Homo sapiens, U-251, U251, CNS cancer
SK-OV-3 = assay type: cell-based; settings: Homo sapiens, SK-OV-3, ovarian cancer
OVCAR-4 = assay type: cell-based; settings: Homo sapiens, OVCAR-4, ovarian cancer
EKVX = assay type: cell-based; settings: Homo sapiens, NSC lung cancer
SNB-19 = assay type: cell-based; settings: Homo sapiens, SNB-19, CNS cancer
SK-MEL-28 = assay type: cell-based; settings: Homo sapiens, SK-MEL-28, melanoma
NCI-H522 = assay type: cell-based; settings: Homo sapiens, NCI-H522, NSC lung cancer
HL-60 (TB) = assay type: cell-based; settings: Homo sapiens, leukemia
SNB-75 = assay type: cell-based; settings: Homo sapiens, SNB-75, CNS cancer
SN12C = assay type: cell-based; settings: Homo sapiens, renal cancer
K-562 = assay type: cell-based; settings: Homo sapiens, K562, K-562, leukemia
BT-549 = assay type: cell-based; settings: Homo sapiens, BT-549, breast cancer
SF-295 = assay type: cell-based; settings: Homo sapiens, SF-295, CNS cancer
MCF7 = assay type: cell-based; settings: Homo sapiens, MCF7, breast cancer
RPMI-8226 = assay type: cell-based; settings: Homo sapiens, RPMI-8226, leukemia
A549/ATCC = assay type: cell-based; settings: Homo sapiens, NSC lung cancer
DU-145 = assay type: cell-based; settings: Homo sapiens, DU-145, prostate cancer
HOP-62 = assay type: cell-based; settings: Homo sapiens, HOP-62, NSC lung cancer
COLO 205 = assay type: cell-based, human; settings: Homo sapiens
NCI-H23 = assay type: cell-based; settings: Homo sapiens, NCI-H23, NSC lung cancer
UACC-257 = assay type: cell-based; settings: Homo sapiens, UACC-257, melanoma
CAKI-1 = assay type: cell-based; settings: Homo sapiens, CAKI-1, renal cancer
MDA-MB-231/ATCC = assay type: cell-based; settings: Homo sapiens, breast cancer
UACC-62 = assay type: cell-based; settings: Homo sapiens, UACC-62, melanoma
PC-3 = assay type: cell-based; settings: Homo sapiens, PC-3, prostate cancer
IGROV1 = assay type: cell-based; settings: Homo sapiens, IGROV-1; IGROV1, ovarian cancer
SK-MEL-2 = assay type: cell-based; settings: Homo sapiens, SK-MEL-2, melanoma
NCI-H460 = assay type: cell-based; settings: Homo sapiens, NCI-H460, NSC lung cancer
OVCAR-3 = assay type: cell-based; settings: Homo sapiens, OVCAR-3, ovarian cancer
OVCAR-8 = assay type: cell-based; settings: Homo sapiens, OVCAR-8, ovarian cancer
NCI/ADR-RES = assay type: cell-based, human; settings: Homo sapiens, ovarian cancer
LOX IMVI = assay type: cell-based; settings: Homo sapiens, melanoma
HCT-15 = assay type: cell-based; settings: Homo sapiens, HCT-15, colon cancer
TK-10 = assay type: cell-based; settings: Homo sapiens, TK-10, renal cancer
SK-MEL-5 = assay type: cell-based, human; settings: Homo sapiens
ACHN = assay type: cell-based; settings: Homo sapiens, renal cancer
[1] = read-out: LC50 (the source's name)

Structure (SMILES): CCOC(=O)c1ccc(/C=N/NC(=O)c2[nH]c3ccc(Br)cc3c2-c2ccccc2)[nH]1 [Derivative 3i, Ethyl (E)-5-((2-(5-bromo-3-phenyl-1H-indole-2-carbonyl)hydrazono)methyl)-1H-pyrrole-2-carboxylate]
- GI50 (U251): 2.82 µM
- CC50 (U251; [1]): 39.4 µM
- GI50 (SK-OV-3): 4.01 µM
- CC50 (SK-OV-3; [1]): > 100 µM
- GI50 (OVCAR-4): 4.26 µM
- CC50 (OVCAR-4; [1]): > 100 µM
- GI50 (EKVX): 4.29 µM
- CC50 (EKVX; [1]): > 100 µM
- GI50 (SNB-19): 2.98 µM
- CC50 (SNB-19; [1]): 62.8 µM
- GI50 (SK-MEL-28): 2.65 µM
- CC50 (SK-MEL-28; [1]): 94.5 µM
- GI50 (NCI-H522): 0.46 µM
- CC50 (NCI-H522; [1]): 82.2 µM
- GI50 (HL-60 (TB)): 1.84 µM
- CC50 (HL-60 (TB); [1]): > 100 µM
- GI50 (SNB-75): 0.399 µM
- CC50 (SNB-75; [1]): > 100 µM
- GI50 (SN12C): 2.86 µM
- CC50 (SN12C; [1]): 36.2 µM
- GI50 (K-562): 1.08 µM
- CC50 (K-562; [1]): > 100 µM
- GI50 (BT-549): 3.47 µM
- CC50 (BT-549; [1]): > 100 µM
- GI50 (SF-295): 1.8 µM
- CC50 (SF-295; [1]): 38.1 µM
- GI50 (MCF7): 1.54 µM
- CC50 (MCF7; [1]): > 100 µM
- GI50 (RPMI-8226): 2.28 µM
- CC50 (RPMI-8226; [1]): > 100 µM
- GI50 (A549/ATCC): 3.25 µM
- CC50 (A549/ATCC; [1]): 79.4 µM
- GI50 (DU-145): 3.32 µM
- CC50 (DU-145; [1]): 38.7 µM
- GI50 (HOP-62): 3.65 µM
- CC50 (HOP-62; [1]): > 100 µM
- CC50 (COLO 205; COLO 205, COLO 205, colon cancer, read-out: LC50 (the source's name)): 36.9 µM
- GI50 (COLO 205; COLO 205, colon cancer): 3.15 µM
- GI50 (NCI-H23): 2.59 µM
- CC50 (NCI-H23; [1]): 43.2 µM
- GI50 (UACC-257): 2.97 µM
- CC50 (UACC-257; [1]): 87.4 µM
- GI50 (CAKI-1): 0.961 µM
- CC50 (CAKI-1; [1]): 74.2 µM
- GI50 (MDA-MB-231/ATCC): 2.63 µM
- CC50 (MDA-MB-231/ATCC; [1]): 33.2 µM
- GI50 (UACC-62): 0.614 µM
- CC50 (UACC-62; [1]): 48.5 µM
- GI50 (PC-3): 2.28 µM
- CC50 (PC-3; [1]): > 100 µM
- GI50 (IGROV1): 2.02 µM
- GI50 (SK-MEL-2): 2.38 µM
- CC50 (SK-MEL-2; [1]): 55 µM
- GI50 (NCI-H460): 2.8 µM
- CC50 (NCI-H460; [1]): 41.4 µM
- GI50 (OVCAR-3): 2.63 µM
- CC50 (OVCAR-3; [1]): 40.7 µM
- GI50 (OVCAR-8): 2.49 µM
- CC50 (OVCAR-8; [1]): 47.6 µM
- GI50 (NCI/ADR-RES): 0.897 µM
- CC50 (NCI/ADR-RES; [1]): 9.2 µM
- GI50 (LOX IMVI): 2.26 µM
- CC50 (LOX IMVI; [1]): 35.2 µM
- GI50 (HCT-15): 2.48 µM
- CC50 (HCT-15; [1]): 40.5 µM
- GI50 (TK-10): 6.92 µM
- CC50 (TK-10; [1]): > 100 µM
- CC50 (SK-MEL-5; SK-MEL-5, SK-MEL-5, melanoma, read-out: LC50 (the source's name)): 7.68 µM
- GI50 (SK-MEL-5; SK-MEL-5, melanoma): 1.48 µM
- GI50 (ACHN): 1.86 µM
- CC50 (ACHN; [1]): 73.8 µM
